Row | melting point [°C] | SMILES
1 | 239 | C/C(=N\NC(N)=O)C1=CC[C@]2(C)C3CCC4=C(CCC4(C)C)C3CC[C@H]2C1 (some centres undefined)
2 | 130 | O=C(Cc1ccccc1)CC(c1ccco1)N1CCCCC1 (centres undefined)
3 | 205 to 208 | N#Cc1c(N)oc(-c2ccccc2)c1-c1ccccc1
4 | 140 | Nc1ccc(C(=O)O)c(N)c1
5 | 219 to 221 | Nc1ccc(I)cc1C(=O)O
6 | -73.5 | CCCCCOC=O
7 | 78 | CC(C)(C)CC(C)(C)c1ccc(O)c(Cc2ccc(Cl)cc2Cl)c1
8 | 80 to 82 | COc1ccc(-n2ncc(C=O)c2C)cc1
9 | 84 | N#CCS(=O)(=O)c1cccs1
10 | 154 | Cc1nc(-c2ccc(C#N)cc2)cs1
11 | 204 to 207 | O=C(O)c1cc(O)ccc1O
12 | 264 | CC(=O)Nc1ncc([N+](=O)[O-])s1
13 | -43 | CCCCCCC1CCCCC1
14 | 118 | O=C(O)c1ccccc1Cc1ccccc1
15 | 210 | CC(C)(C)N(NC(=O)c1ccccc1)C(=O)c1c(F)cccc1Cl
16 | 54.5 | CN1CCN(C2CCNCC2)CC1
17 | 21 | O=C(O)C1CCCO1 (centres undefined)
18 | 129 | CC(=O)Oc1c[nH]c2ccccc12
19 | 43.7 to 44.4 | COC1OC(=O)c2ccccc21 (centres undefined)
20 | 231 | CC1=Nc2ccccc2Sc2c1c(=O)n(-c1ccccc1)c1ccccc21
21 | 96 to 97 | Cn1nc(-c2cccs2)cc1CCl
22 | 35 | CCOc1cccc(-c2ccccc2)c1
23 | 95 to 98 | O=[N+]([O-])c1cccc2cc[nH]c12
24 | 185 to 187 | CC1(C)CC(=O)c2cc(-c3ccccc3)n(-c3ccc(Cl)cc3)c2C1

Row | melting point [°C] | SMILES
25 | 171 to 172 | CCOC(=O)c1nnn2c1nc(S)c1ccccc12
26 | 201 | COc1ccc(-c2cc3nc(-c4cccs4)cc(C(F)(F)F)n3n2)cc1
27 | -49.5 | CCCCCC=CCC=CCC=CCC=CCCCC(=O)O
28 | 123 | CC(C)CCCC(C)C1CC[C@@]2(C)C3=CCC4[C@H](C)[C@@H](O)CC[C@]4(C)C3=CC[C@]12C (some centres undefined)
29 | 87 | CC1(C)OC(C(O)CO)C(C(O)CO)O1 (centres undefined)
30 | 10 | CC1(C)CC(N)CC(C)(CN)C1 (centres undefined)
31 | 62 to 63 | O=Cc1cccc2c1OCCO2
32 | 67 to 71 | CC(C)(C)OC(=O)N1CCN(c2ccccc2CO)CC1
33 | 291 | O=C(O)c1ccc2c(c1)C(=O)c1ccccc1C2=O
34 | -91 | CC(C)CCC(C)C
35 | 43.5 | C#CC(C)N(C(=O)CCl)c1ccccc1 (centres undefined)
36 | 64 to 65 | Clc1ncnc2sc3c(c12)CCCCC3
37 | 66 | CC(C)(C)C1CCC(O)CC1 (centres undefined)
38 | 53 | Cc1ccnc(Cl)c1[N+](=O)[O-]
39 | 92 to 95 | NC(=NO)c1ccc(F)cc1
40 | 46 | CC1NC(C)SC(C)S1 (centres undefined)
41 | 91 to 93 | COc1cccc(CNC(N)=S)c1
42 | 224 | C=C1CC2C3C=C(C)C4=CC(=O)CCC4(C)C3CCC2(C)C1(OC(C)=O)C(C)=O (centres undefined)
43 | 139 | O=C(C(=S)Nc1ccc(I)cc1)c1ccccc1
44 | 113 to 115 | CC(=O)N(c1ccccc1)c1nc(CCl)cs1
45 | 45.5 | CC1(C)CC(O)CC(C)(CN)C1 (centres undefined)
46 | 146 | CC(C)[C@@H](C)CC[C@@H](C)[C@H]1CC[C@H]2C3=CC[C@H]4C[C@@H](O)CC[C@]4(C)[C@H]3CC[C@]12C
47 | 66 | COC(=O)c1ccnnc1
48 | 127 | NCC(O)C(O)C(O)C(O)CO (centres undefined)

Row | melting point [°C] | SMILES
49 | 56 to 58 | S=C=Nc1ccccc1N=C=S
50 | 214 | COc1ccc(C=Cc2ccc(OC)cc2)cc1
51 | 152 | O=C(NC(=O)c1ccccc1)c1ccccc1
52 | 135 | CCOC(=O)NNC(=O)OCC
53 | 82 to 83 | O=Cc1ccc(-n2cccn2)cc1
54 | 128 | NC(=O)CCCCC1CCSS1 (centres undefined)
55 | 200 to 204 | Nc1nc2ccccc2n1Cc1ccccc1
56 | 111 | CC(C)CNC(=O)C(C(F)(F)F)C(F)(F)F
57 | 142 | COc1ccc(N/N=C2\C(=O)N(CO)N=C2C(F)(F)F)cc1
58 | 66 | O=C1CCCN1c1ccccc1
59 | 320 | Nn1c(S)nnc1-c1ccc(Cl)cc1
60 | 65 to 67 | O=C1C=C(/C=C/c2ccccc2)CCC1
61 | 202 | CC1CC2C3CCC4=CC(=O)C=CC4(C)C3C(=O)CC2(C)C1(O)C(=O)CO (centres undefined)
62 | 145 | COC(=O)C(Br)C(Br)c1cccc(C(Br)C(Br)C(=O)OC)c1 (centres undefined)
63 | 109 to 112 | CC(C)(O)C#Cc1ccc(C=NO)cc1
64 | 147 to 151 | CCC(C)Cn1c(O)nnc1S (centres undefined)
65 | 178 | COc1ccc(N/N=C(\C#N)c2nc(C)c(/N=N/c3ccccc3)s2)cc1
66 | 122 | O=[N+]([O-])c1cc(Cl)cc(Cl)c1O
67 | 199 to 205 | O=C(O)c1ccc2ccccc2c1O
68 | 145 | Nc1c(Cl)ncnc1Cl
69 | 102 | Nc1ccc(Oc2ccc(Cl)cc2)cc1
70 | 14 | C=C(C)CCCCCCCCCCCCCCCC
71 | -49 | Cc1ccsc1C
72 | 114 to 116 | C#CCN1CCS(=O)(=O)CC1

Row | melting point [°C] | SMILES
73 | 110 to 113 | O=C1OC(C2COC3(CCCCC3)O2)C2OC3(CCCCC3)OC12 (centres undefined)
74 | 63 | Cc1cc(C)c(NC(=O)C(F)(F)C(F)(F)C(F)(F)C(F)(F)C(F)(F)C(F)(F)C(F)(F)C(F)(F)F)c(C)c1
75 | 163 | O=C(C=Cc1ccc([N+](=O)[O-])cc1)c1ccc(Cl)cc1
76 | 218 to 220 | O=C(Nc1c(Cl)cc(Cl)cc1Cl)C(C(F)(F)F)C(F)(F)F
77 | 25.5 | O=Cc1c(F)c(F)c(F)c(F)c1F
78 | 127 | O=Cc1ccc(O)c(Br)c1
79 | 58 to 60 | OCc1cccc(COc2ccccc2)c1
80 | 49 | CC(=O)Oc1ccccc1C(=O)Cl
81 | 69.5 | O=C(O)C1(C(F)(F)F)CCCCC1
82 | 56 to 59 | OCc1cccc(Cn2cncn2)c1
83 | 77.5 | Cc1ncc([N+](=O)[O-])n1CC(O)CCl (centres undefined)
84 | 158 to 160 | Cc1c(C(=O)CCl)sc2ccc(Cl)cc12
85 | 300 | O=Cc1c[nH]c2ccc([N+](=O)[O-])cc12
86 | 224 | COc1cc(OC)c(C(=O)/C=C/c2cc3c(cc2[N+](=O)[O-])OCO3)c(OC)c1
87 | 32 | CCN(CC)c1ccc(N=C=S)cc1
88 | 182 to 185 | COc1cc2c(cc1O)C(C)=NCC2
89 | 182 | CC12CCC(=O)C3OC31CC(C1(O)CCC3(C)C(=O)CCC34OC14)C2=O (centres undefined)
90 | 256 | c1ccc2c(c1)Oc1nc3ccccc3nc1O2
91 | 265 to 268 | CC(C)n1cc(C#N)c(=O)[nH]c1=O
92 | 126 to 128 | NNC(=O)c1ccsc1
93 | 97 | CCCOC(=O)c1ccccc1O
94 | 12 | CC(=O)c1cc(Cl)ccc1Cl
95 | 238 | NC(=O)NC1NC(=O)NC1=O (centres undefined)
96 | 133 | O=C(Cc1cc(Cl)c([N+](=O)[O-])cc1[N+](=O)[O-])c1ccccc1

Row | melting point [°C] | SMILES
97 | 39 | CCCCCCCCCOc1ccc(N)cc1
98 | 55 to 56 | CCC(O)c1ccc(-c2ccccc2F)cc1 (centres undefined)
99 | 212 to 213 | Cc1nnsc1-c1nnc(S)n1C1CC1
100 | 205 | Cc1ccc(NC(=O)C=CC(=O)O)cc1
101 | 20 | Cc1ccncc1[N+](=O)[O-]
102 | 142 to 147 | Cc1ccccc1-n1ncc(C(=O)O)c1C
103 | 58 | C=C(C)c1ccc(C)c2ccc(C=O)c-2c1
104 | 293 | COc1ccc(Nc2nc(N)nnc2-c2ccccc2)cc1
105 | 130 to 136 | O=C(N[C@H]1CCCC[C@H]1C(=O)O)OCc1ccccc1 (relative stereo)
106 | 85 | CNc1nc(NC(C)C)nc(SC)n1
107 | 67 to 68 | Nc1c(F)cc(Br)cc1F
108 | 35 | COC(=O)c1occc1C
109 | 152 | O=C(O)c1c(F)ccc(F)c1O
110 | -49.9 | CC1CCCCC1C (centres undefined)
111 | 35 | CCc1ccccc1Cc1ccccc1N
112 | 36 | Cl[Si](Cl)(Cl)CCC12CC3CC(CC(C3)C1)C2
113 | 216 to 218 | NNC(=O)CN1c2ccccc2Sc2ccccc21
114 | 85 | O=Cc1cccc2ccnn12
115 | 49 | CCc1cc2ccccc2ccc1=O
116 | 135 | NS(=O)(=O)c1cc(Cl)ccc1F
117 | 112 to 118 | Cc1cc2cc(Cl)ccc2[nH]1
118 | 97 to 99 | NCc1ccc2nccn2c1
119 | -10 | CCCCCCCCCCCC1CCCC1

Row | SMILES | melting point [°C]
120 | CCCN=C=O | -30
121 | OCC1CCCN2CCCCC12 (centres undefined) | 70
122 | C=CCC1(C2C=CCC2)C(=O)NC(=O)NC1=O (centres undefined) | 140
123 | CCC(Br)C(=O)O (centres undefined) | -4
124 | COC(=O)c1ccccc1NC(C)=O | 97 to 101
125 | CCC1CN2CCC1CC2C(O)c1ccnc2ccccc12 (centres undefined) | 268
126 | Brc1ccc(Oc2ccc(Br)cc2Br)c(Br)c1 | 78.5 to 79
127 | CN(C)CCc1c[nH]c2cccc(OP(=O)(O)O)c12 | 224
128 | CC(=O)OC1CCC2C3CC=C4CC5(CCC4(C)C3CCC12C)OCCO5 (centres undefined) | 196
129 | Nc1ccc(C(F)(F)F)cc1 | 38
130 | C=CC1CN2CCC1CC2C(=O)c1ccnc2ccc(OC)cc12 (centres undefined) | 108
131 | CC12CCC(=O)CC1CCC13OC14CCC(=O)C4(C)CCC23 (centres undefined) | 171 to 173
132 | C[C@]12CCC(O)CC1=CC[C@@H]1[C@@H]2CC[C@]2(C)C(O)CC[C@@]12C (some centres undefined) | 182 to 184
133 | Cc1cc(C(=O)CBr)ccc1Cl | 56 to 57
134 | CC1C(=O)OC2CCN3CC=C(COC(=O)C(C)(O)C1(C)O)C23 (centres undefined) | 197 to 204

— a melting point compilation (Tetko et al.)
